Source: patent US10196357B2, “Biaryl compositions and methods for modulating a kinase cascade” (Athenex, Inc., priority 2007, dated 2019)
“And” between values parts separate entries of the source, which are not always exact repeats. Equal entries are not always repeated. Where two headings read alike, the source gives them in different places.

Experiments:
[1] = brain exposure after oral administration; format: in vivo, male CD-1 mice; conditions: for concentration at 5 hr: Male CD-1 mice, single PO dose 50 mg/kg (Group 4); for Cmax / Tmax: Brain
Description: Plasma concentrations were measured in mice after oral administration. All doses were formulated in purified water. Four groups of male CD-1 mice were dosed after an overnight fast and fed 4 hours post-dose. Dosing was as follows:
Protein was precipitated with 0.25 mL acetonitrile for plasma, 0.25 mL for brain. After centrifugation, supernatant was directly injected into an LC/MS system. The limit of quantitation was 1 ng/mL using a 50 μL aliquot for plasma and a 50 μL, aliquot for brain. The standard curve was 1 to 1,000 ng/mL for both plasma and brain. HPLC conditions were as follows:
HPLC System: Shimadzu SCL-10 System
• Analytical Column: Aquasil C18 5 μm 100×2 mm column. • Column Temperature: Ambient temperature • Autosampler Temperature: Ambient temperature • Mobile Phase A) 10 mM Ammonium formate in water (pH 4). • B) Acetonitrile. • Flow Rate: 0.6 mL/min • Injection Volume: 2 μL • Gradient:
• Mass Spectrometry Conditions were as follows: • Instrument: ABI Sciex API 4000 • Mode: ESI+ • Experiment: MRM (multiple reaction monitoring) • Transitions: KX2-391: m/z 432.4→114.2 (Rt=3.11 minute) • KX2-361: m/z 406.1→253.2 (Rt=3.33 minute)

isolated Src = isolated Src (Homo sapiens, UniProt P12931); experiment: titration against isolated Src; format: biochemical; conditions: titration data
c-Src 3T3 cells = experiment: BrdU cell growth inhibition, c-Src 3T3; format: cell-based, mouse; conditions: Mus musculus; c-Src 3T3 (c-Src527F/NIH3T3) cells; read-out: GI50
Summary of the method: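 c-Src 3T3 cells on poly-D-lysine plates in DMEM with 2% FBS, L-glutamine, pyruvate and 10 mM HEPES. Compounds came from 20 mM DMSO stocks diluted in DMEM/10% FBS. Proliferation was read by colorimetric BrdU-incorporation ELISA, and GI50 was extrapolated from growth relative to time-zero and untreated controls.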

HT29 cell line = experiment: BrdU cell growth inhibition, HT29; format: cell-based, human; conditions: Homo sapiens, read-out: GI50
Summary of the method: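 HT29 colon carcinoma cells treated with compounds diluted from 20 mM DMSO stocks into DMEM/10% FBS. Proliferation read as colorimetric BrdU incorporation ELISA; GI calculated relative to untreated cells at time 0 and control cells at day n, with GI50 extrapolated. Net cell loss below time-0 level scored as cytotoxicity.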

MDA231 (Breast) = experiment: growth inhibition (BrdU), MDA231; format: cell-based, Human; conditions: Homo sapiens, MDA-MB-231, MDA-MB-321, BrdU, T=72
From the text: Growth Inhibition. […] T1 values≤T0 values were designated as T, cytotoxicity.

[2] = tested on: PDGF receptor tyrosine kinase Y572/574; experiment: PDGF receptor autophosphorylation in cells; format: cell-based; conditions: c-Src527F/NIH-3T3 cells
Description: HT29 (colon cancer) and c-Src527F/NIH-3T3 (Src transformed) cell lines were treated with KX2-391 or with AstraZeneca's ATP competitive Src inhibitor AZ28. AZ28 serves as a positive comparator to show what a validated Src inhibitor should do in these assays. After treatment with compound, cells were lysed, subjected to PAGE and probed with a battery of antibodies. […] In addition, off-target protein phosphorylation was also investigated. Further, induction of apoptosis was evaluated via Caspase 3 cleavage. Multiple doses of each compound were tested because the trends in response to increasing drug concentration are the most reliable indicator of activity.
The same range of multiples of the GI50 for AZ28 in these two cell lines was run as a comparison.
This is thought not to be a direct Src substrate in cells.

GL261 glioma cells = experiment: intracranial GL261 glioma survival study; format: in vivo, C57BL/6 mice; conditions: 5 mg/kg bid oral; C57BL/6 mice, intracranial GL261
Description: A brain tumor mouse xenograft study was conducted comparing KX2-361 and KX2-391 (KXO1) to Temodar®. The studies were conducted in C57BL/6 mice. GL261 glioma cells (1×10^5 in 5 μl DMEM) were implanted intracranial coordinates: bregma, lateral 2.0 mm, anterior 1.2 mm, 3.0 mm depth dura. Treatment was initiated 3 days post implantation. The groups were as follows (all doses in 100 μl H2O):
The median survival range and the log-rank (Mantel-Cox) statistical test results comparing the survival distributions of the samples.

[3] = male, CD-1, mouse, single oral dose 10 mg/kg
[4] = male, CD-1, mouse, single oral dose 50 mg/kg

isolated Src, sequence (P12931 whole entry): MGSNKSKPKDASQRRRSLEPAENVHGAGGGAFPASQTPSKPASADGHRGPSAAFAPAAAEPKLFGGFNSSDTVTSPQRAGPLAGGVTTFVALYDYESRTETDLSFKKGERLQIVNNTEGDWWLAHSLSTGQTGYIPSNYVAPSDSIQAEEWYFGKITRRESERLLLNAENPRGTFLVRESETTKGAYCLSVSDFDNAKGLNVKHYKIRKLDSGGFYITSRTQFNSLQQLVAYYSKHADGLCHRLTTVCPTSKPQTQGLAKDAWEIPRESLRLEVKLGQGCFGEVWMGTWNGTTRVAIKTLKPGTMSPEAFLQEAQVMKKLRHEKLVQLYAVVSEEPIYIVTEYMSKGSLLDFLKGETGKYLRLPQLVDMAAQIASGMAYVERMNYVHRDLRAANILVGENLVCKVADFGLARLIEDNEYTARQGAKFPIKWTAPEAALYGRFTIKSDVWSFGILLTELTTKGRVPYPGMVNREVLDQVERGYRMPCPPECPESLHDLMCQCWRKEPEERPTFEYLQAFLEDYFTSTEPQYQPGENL

**Q.** What does the source list for `O=C(Cc1ccc(-c2ccc(OCCN3CCOCC3)cc2)cn1)NCc1ccccc1` [KX2-391]?
**A.** concentration at 5 hr ([1]; male, CD-1, mouse, brain, po, 50 mg/kg, 5 hr, Group A, read-out: KX2-391 Brain Concentrations, Group A): 122 ng/g; concentration at 5 hr ([1]; male, CD-1, mouse, brain, po, 50 mg/kg, 5 hr, Group B, read-out: KX2-391 Brain Concentrations, Group B): 260 ng/g; concentration at 5 hr ([1]; male, CD-1, mouse, brain, po, 50 mg/kg, 5 hr, Group C, read-out: KX2-391 Brain Concentrations, Group C): 239 ng/g; concentration at 5 hr ([1]; male, CD-1, mouse, brain, po, 50 mg/kg, 5 hr, Mean, read-out: KX2-391 Brain Concentrations, Mean): 207 ng/g; concentration at 0.5 h ([1]; male, CD-1, mouse, brain, po, 50 mg/kg, single PO dose 50 mg/kg (Group 2), 0.5 hr, read-out: Brain Concentrations, Group A, B, C): 2800 ng/g; concentration at 0.5 h ([1]; male, CD-1, mouse, brain, po, 50 mg/kg, single PO dose 50 mg/kg (Group 2), 0.5 hr, read-out: Brain Concentrations, Mean): 3690 ng/g; concentration at 1 h ([1]; male, CD-1, mouse, brain, po, 50 mg/kg, single PO dose 50 mg/kg (Group 2), 1 hr, read-out: Brain Concentrations, Group A, B, C): 946 ng/g; concentration at 1 h ([1]; male, CD-1, mouse, brain, po, 50 mg/kg, single PO dose 50 mg/kg (Group 2), 1 hr, read-out: Brain Concentrations, Mean): 788 ng/g; concentration at 2 h ([1]; male, CD-1, mouse, brain, po, 50 mg/kg, single PO dose 50 mg/kg (Group 2), 2 hr, read-out: Brain Concentrations, Group A, B, C): 613 ng/g; concentration at 2 h ([1]; male, CD-1, mouse, brain, po, 50 mg/kg, single PO dose 50 mg/kg (Group 2), 2 hr, read-out: Brain Concentrations, Mean): 610 ng/g; concentration at 5 h ([1]; male, CD-1, mouse, brain, po, 50 mg/kg, single PO dose 50 mg/kg (Group 2), 5 hr, read-out: Brain Concentrations, Mean): 370 ng/g; Cmax [1, 3]: 398 ng/g; Tmax [1, 3]: 30 min; Cmax [1, 4]: 3690 ng/g; Tmax [1, 4]: 30 min; Brain Concentrations, Group A, B, C ([1]; single PO dose 10 mg/kg (Group 1), 0.5 hr, 10 mg/kg): 509.00 ng/g and 286.70 ng/g; Brain Concentrations, Group A, B, C ([1]; single PO dose 10 mg/kg (Group 1), 2 hr, 10 mg/kg): 84.04 ng/g and 85.88 ng/g; Brain Concentrations, Group A, B, C ([1]; single PO dose 10 mg/kg (Group 1), 5 hr, 10 mg/kg): 75.21 ng/g and 71.22 ng/g; Brain Concentrations, Group A, B, C ([1]; single PO dose 50 mg/kg (Group 2), 0.5 hr, 50 mg/kg): 3190.42 ng/g and 5089.32 ng/g; Brain Concentrations, Group A, B, C ([1]; single PO dose 50 mg/kg (Group 2), 1 hr, 50 mg/kg): 936.29 ng/g and 482.22 ng/g; Brain Concentrations, Group A, B, C ([1]; single PO dose 50 mg/kg (Group 2), 2 hr, 50 mg/kg): 530.41 ng/g and 684.97 ng/g; IC50 (isolated Src): 46000 nM; GI50 (c-Src 3T3 cells): 13 nM; GI50 (HT29 cell line; HT-29, HT29 (Colon) cells): 23 nM; GI50 (HT29 cell line; HT-29, HT-29, BrdU, T=72): 15.4 nM; GI50 (MDA231 (Breast)): 19.8 nM; PDGF receptor Y572/574 autophosphorylation [2]: Some effect; Median survival (GL261 glioma cells): 23; survival Range (GL261 glioma cells): 22-29
